Experimental data: ChEMBL document CHEMBL1212938, “Inhibition of mycobacterial replication by pyrimidines possessing various C-5 functionalities and related 2'-deoxynucleoside analogues using in vitro and in vivo models” (J Med Chem, 2010)
Activity calls are given as the source filed them.

Tests used:
Format in all cases: functional, organism-based
[1] = system: Staphylococcus aureus; assay: Antibacterial activity against Staphylococcus aureus at 100 ug/ml after 16 to 20 hrs by broth microdilution method
[2] = system: Staphylococcus epidermidis; assay: Antibacterial activity against Staphylococcus epidermidis at 100 ug/ml after 16 to 20 hrs by broth microdilution method
[3] = system: Enterococcus faecalis; assay: Antibacterial activity against Enterococcus faecalis at 100 ug/ml after 16 to 20 hrs by broth microdilution method
[4] = system: Bacillus subtilis; assay: Antibacterial activity against Bacillus subtilis at 100 ug/ml after 16 to 20 hrs by broth microdilution method
[5] = system: Streptococcus pneumoniae; assay: Antibacterial activity against Streptococcus pneumoniae at 100 ug/ml after 16 to 20 hrs by broth microdilution method
[6] = system: Streptococcus pyogenes; assay: Antibacterial activity against Streptococcus pyogenes at 100 ug/ml after 16 to 20 hrs by broth microdilution method
[7] = system: Listeria monocytogenes; assay: Antibacterial activity against Listeria monocytogenes at 100 ug/ml after 16 to 20 hrs by broth microdilution method
[8] = system: Salmonella typhimurium; assay: Antibacterial activity against Salmonella Typhimurium at 100 ug/ml after 16 to 20 hrs by broth microdilution method; details: Salmonella enterica subsp. enterica serovar Typhimurium
[9] = system: Escherichia coli; assay: Antibacterial activity against Escherichia coli at 100 ug/ml after 16 to 20 hrs by broth microdilution method
[10] = system: Proteus vulgaris; assay: Antibacterial activity against Proteus vulgaris at 100 ug/ml after 16 to 20 hrs by broth microdilution method
[11] = system: Pseudomonas aeruginosa; assay: Antibacterial activity against Pseudomonas aeruginosa at 100 ug/ml after 16 to 20 hrs by broth microdilution method

Measured: Activity

CCCCCCCCCCCC#Cc1c[nH]c(=O)[nH]c1=O
inactive: all assays above

O=c1[nH]cc(C(O)CI)c(=O)[nH]1 (stereo not drawn)
not listed: [4] | [7]
inactive: all other assays above

COC(CCl)c1c[nH]c(=O)[nH]c1=O (stereo not drawn)
not listed: [4] | [7]
inactive: all other assays above

CCCCCCCCCCC#Cc1c[nH]c(=O)[nH]c1=O
inactive: all assays above

O=c1[nH]cc(C(CI)OCCBr)c(=O)[nH]1 (stereo not drawn)
not listed: [4] | [7]
inactive: all other assays above

COC(CI)c1c[nH]c(=O)[nH]c1=O (stereo not drawn)
not listed: [4] | [7]
inactive: all other assays above

COC(CBr)c1c[nH]c(=O)[nH]c1=O (stereo not drawn)
not listed: [4] | [7]
inactive: all other assays above

O=C(O)C(I)C(O)c1c[nH]c(=O)[nH]c1=O (stereo not drawn)
not listed: [4] | [7]
inactive: all other assays above

CCCCCCCCCCCCC#Cc1c[nH]c(=O)[nH]c1=O
inactive: all assays above

O=C(O)/C=C/c1c[nH]c(=O)[nH]c1=O
not listed: [4] | [7]
inactive: all other assays above

CCOC(CI)c1c[nH]c(=O)[nH]c1=O (stereo not drawn)
not listed: [4] | [7]
inactive: all other assays above

CCCCCCCCC#Cc1c[nH]c(=O)[nH]c1=O
inactive: all assays above

CCCCCc1cc2c[nH]c(=O)nc2o1
inactive: all assays above

CCCC#Cc1c[nH]c(=O)[nH]c1=O
inactive: all assays above

CCCCCCCCc1cc2c[nH]c(=O)nc2o1
inactive: all assays above

O=c1[nH]cc(C(CI)OCC(F)(F)F)c(=O)[nH]1 (stereo not drawn)
not listed: [4] | [7]
inactive: all other assays above

O=c1[nH]cc(C(CI)OCCF)c(=O)[nH]1 (stereo not drawn)
not listed: [4] | [7]
inactive: all other assays above

CCCCCCCCCCc1cc2c[nH]c(=O)nc2o1
inactive: all assays above
